Experimental data published in patent US20110263662A1, “1,2-DIAMIDO-ETHYLENE DERIVATIVES AS OREXIN ANTAGONISTS” (priority 2007, published 2011).
pIC50: −log10 of the molar value.

How the values were obtained:
human orexin-1 receptor = target: T1, human orexin-1 receptor (Homo sapiens, UniProt O43613); test: FLIPR intracellular calcium assay, orexin receptor antagonistic activity (OX1); format: cell-based; conditions: CHO cells expressing human orexin-1 receptor; 3 nM orexin-A; measured with FLIPR Tetra (marked *)
T1 construct: expressed in transfected cells; host or cells: CHO (Chinese hamster ovary) cells, grown under G418 selection
T1 sequence (O43613 1-425): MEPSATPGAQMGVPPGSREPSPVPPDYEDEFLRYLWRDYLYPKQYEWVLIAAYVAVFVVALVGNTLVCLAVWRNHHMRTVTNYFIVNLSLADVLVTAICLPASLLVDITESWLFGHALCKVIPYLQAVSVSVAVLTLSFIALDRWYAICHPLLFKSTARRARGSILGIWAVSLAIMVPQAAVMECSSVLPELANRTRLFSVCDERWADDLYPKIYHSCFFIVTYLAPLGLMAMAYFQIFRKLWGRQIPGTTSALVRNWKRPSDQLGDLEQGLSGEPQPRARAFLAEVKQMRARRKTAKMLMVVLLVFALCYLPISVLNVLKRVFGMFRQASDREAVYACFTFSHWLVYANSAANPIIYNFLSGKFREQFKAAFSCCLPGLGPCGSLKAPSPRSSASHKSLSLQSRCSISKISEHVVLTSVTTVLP
Method: (§1) Chinese hamster ovary (CHO) cells expressing the human orexin-1 receptor and the human orexin-2 receptor, respectively, are grown in culture medium (Ham F-12 with L-Glutamine) containing 300 μg/ml G418, 100 U/ml penicillin, 100 μg/ml streptomycin and 10% heat inactivated fetal calf serum (FCS). The cells are seeded at 20′000 cells/well into 384-well black clear bottom sterile plates (Greiner). The seeded plates are incubated overnight at 37° C. in 5% CO2.
(§2) Human orexin-A as an agonist is prepared as 1 mM stock solution in MeOH:water (1:1), diluted in HBSS containing 0.1% bovine serum albumin (BSA), NaHCO3:0.375 g/l and 20 mM HEPES for use in the assay at a final concentration of 3 nM.
(§3) Antagonists are prepared as 10 mM stock solution in DMSO, then diluted in 384-well plates, first in DMSO, then in HBSS containing 0.1% bovine serum albumin (BSA), NaHCO3: 0.375 g/l and 20 mM HEPES.
(§4) On the day of the assay, 50 μl of staining buffer (HBSS containing 1% FCS, 20 mM HEPES, NaHCO3: 0.375 g/l, 5 mM probenecid (Sigma) and 3 μM of the fluorescent calcium indicator fluo-4 AM (1 mM stock solution in DMSO, containing 10% pluronic) is added to each well.
(§5) The 384-well cell-plates are incubated for 50 min at 37° C. in 5% CO2 followed by equilibration at RT for 30-120 min before measurement.
(§6) Within the Fluorescent Imaging Plate Reader (FLIPR2 or FLIPR Tetra, Molecular Devices), antagonists are added to the plate in a volume of 10 μl/well, incubated for 10 min and finally 10 μl/well of agonist is added. Fluorescence is measured for each well at 1 second intervals, and the height of each fluorescence peak is compared to the height of the fluorescence peak induced by 3 nM orexin-A with vehicle in place of antagonist. For each antagonist, the IC50 value (the concentration of compound needed to inhibit 50% of the agonistic response) is determined. Optimized conditions may be achieved by adjustment of pipetting speed and cell splitting regime. The calculated IC50 values of the compounds may fluctuate depending on the daily cellular assay performance. Fluctuations of this kind are known to those skilled in the art.

human orexin-2 receptor = target: T2, human orexin-2 receptor (Homo sapiens, UniProt O43614); test: FLIPR intracellular calcium assay, orexin receptor antagonistic activity (OX2); format: cell-based; conditions: CHO cells expressing human orexin-2 receptor; 3 nM orexin-A; measured with FLIPR Tetra (marked *)
T2 construct: expressed in transfected cells; host or cells: CHO (Chinese hamster ovary) cells, grown under G418 selection
T2 sequence (O43614 1-444): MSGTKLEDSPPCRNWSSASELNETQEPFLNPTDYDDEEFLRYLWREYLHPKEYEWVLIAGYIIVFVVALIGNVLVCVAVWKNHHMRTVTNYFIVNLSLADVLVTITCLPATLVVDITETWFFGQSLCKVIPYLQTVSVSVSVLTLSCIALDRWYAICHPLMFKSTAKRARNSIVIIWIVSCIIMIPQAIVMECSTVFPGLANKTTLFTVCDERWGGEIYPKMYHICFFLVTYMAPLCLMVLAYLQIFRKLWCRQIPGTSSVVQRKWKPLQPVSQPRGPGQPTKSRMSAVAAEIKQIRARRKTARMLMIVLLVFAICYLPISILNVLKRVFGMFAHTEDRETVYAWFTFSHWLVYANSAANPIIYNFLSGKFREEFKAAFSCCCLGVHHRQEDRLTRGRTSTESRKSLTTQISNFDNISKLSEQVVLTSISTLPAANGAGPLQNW
Method: as §1, §2, §3, §4, §5, §6

Compound | pIC50 (human orexin-1 receptor) | pIC50 (human orexin-2 receptor)
Cc1nc(C(=O)N(CCNC(=O)c2c(C)nc3sccn23)CC2CC2)c(-c2cccc(C#N)c2)s1 [Example 187, 6-Methyl-imidazo[2,1-b]thiazole-5-carboxylic acid (2-{[5-(3-cyano-phenyl)-2-methyl-thiazole-4-carbonyl]-cyclopropylmethyl-amino}-ethyl)-amide] | 7.77 | 7.55
Cc1cccc(-c2sc(N)nc2C(=O)N(CCNC(=O)c2nn(C)c3ccccc23)CC2CC2)c1 [Example 195, 1-Methyl-1H-indazole-3-carboxylic acid {2-[(2-amino-5-m-tolyl-thiazole-4-carbonyl)-cyclopropylmethyl-amino]-ethyl}-amide] | 7.24 | 7.92
COc1cccc(-c2sc(C)nc2C(=O)N(CCNC(=O)c2cccc3c2OCCO3)CC2CC2)c1 [Example 248, 5-(3-Methoxy-phenyl)-2-methyl-thiazole-4-carboxylic acid cyclopropylmethyl-{2-[(2,3-dihydro-benzo[1,4]dioxine-5-carbonyl)-amino]-ethyl}-amide] | 6.36 | 7.54
Cc1cccc(-c2ccccc2C(=O)N(CCNC(=O)c2cccc3c2OCCO3)CC2CC2)c1 [Example 252, 2,3-Dihydro-benzo[1,4]dioxine-5-carboxylic acid {2-[cyclopropylmethyl-(3′-methyl-biphenyl-2-carbonyl)-amino]-ethyl}-amide] | 6.09 | 6.69
Nc1nc(C(=O)N(CCNC(=O)c2cccc3occc23)CC2CC2)c(-c2ccc(F)cc2)s1 [Example 261, 2-Amino-5-(4-fluoro-phenyl)-thiazole-4-carboxylic acid {2-[(benzofuran-4-carbonyl)-amino]-ethyl}-cyclopropylmethyl-amide] | 6.58 | 8.38
Nc1nc(C(=O)N(CCNC(=O)c2cccc3occc23)CC2CC2)c(-c2cccc(Cl)c2)s1 [Example 262, 2-Amino-5-(3-chloro-phenyl)-thiazole-4-carboxylic acid {2-[(benzofuran-4-carbonyl)-amino]-ethyl}-cyclopropylmethyl-amide] | 6.84 | 7.77
